# Ends that are not written are not given here. Peptide text beside a SMILES is read from it. * marks the point of attachment. Biotin = O=C1N[C@H]2[C@H](CS[C@H]2CCCCC(=O)*)N1
# Tests used:
# Assay in all cases: G' assay (10 uM PL peptide), results of TABLE 7 and TABLE 12
# Format in all cases: binding
# [1] = target: T1, PDZ protein (GST-PDZ fusion) (Homo sapiens, UniProt Q9UDY2); conditions: PDZ ZO-2, PDZ Domain 1
# T1 construct: made in house; host or cells: E. coli (DH5alpha, BL21 or JM109)
# T1 sequence (Q9UDY2 1-1190): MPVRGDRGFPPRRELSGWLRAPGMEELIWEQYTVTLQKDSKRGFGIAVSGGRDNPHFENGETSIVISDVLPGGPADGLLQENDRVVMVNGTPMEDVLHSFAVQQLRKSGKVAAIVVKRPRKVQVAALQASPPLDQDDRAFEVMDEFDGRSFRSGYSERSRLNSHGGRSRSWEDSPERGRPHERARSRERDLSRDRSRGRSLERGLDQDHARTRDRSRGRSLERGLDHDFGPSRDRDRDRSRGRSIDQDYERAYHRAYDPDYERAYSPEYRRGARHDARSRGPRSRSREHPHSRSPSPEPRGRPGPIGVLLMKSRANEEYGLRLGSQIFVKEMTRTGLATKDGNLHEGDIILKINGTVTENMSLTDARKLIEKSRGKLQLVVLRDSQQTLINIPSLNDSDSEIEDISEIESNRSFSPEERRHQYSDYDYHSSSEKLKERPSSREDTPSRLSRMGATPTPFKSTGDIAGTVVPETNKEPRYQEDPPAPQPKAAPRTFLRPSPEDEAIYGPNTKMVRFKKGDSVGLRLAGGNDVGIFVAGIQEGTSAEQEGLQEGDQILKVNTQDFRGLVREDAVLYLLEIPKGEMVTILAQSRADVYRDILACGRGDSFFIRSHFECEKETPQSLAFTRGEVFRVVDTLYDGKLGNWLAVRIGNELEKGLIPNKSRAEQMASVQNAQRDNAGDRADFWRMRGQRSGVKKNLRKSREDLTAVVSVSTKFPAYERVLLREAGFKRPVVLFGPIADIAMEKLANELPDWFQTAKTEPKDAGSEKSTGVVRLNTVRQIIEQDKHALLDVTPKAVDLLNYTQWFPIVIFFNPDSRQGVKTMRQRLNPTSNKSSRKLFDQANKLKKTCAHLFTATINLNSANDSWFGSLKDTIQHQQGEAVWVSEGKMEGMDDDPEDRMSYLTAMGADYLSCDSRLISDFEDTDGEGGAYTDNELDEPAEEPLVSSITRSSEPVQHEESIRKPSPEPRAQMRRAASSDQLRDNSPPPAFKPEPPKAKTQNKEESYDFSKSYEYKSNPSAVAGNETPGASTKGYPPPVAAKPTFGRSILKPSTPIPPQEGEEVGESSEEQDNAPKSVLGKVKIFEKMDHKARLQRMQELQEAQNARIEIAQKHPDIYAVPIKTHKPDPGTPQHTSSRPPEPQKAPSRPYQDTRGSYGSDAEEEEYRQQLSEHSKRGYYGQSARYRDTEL
# In short: (§1)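 Same steps as the G-zero format, apart from a peptide concentration of 10 uM in place of 20 uM in step 2. Amino-terminally biotinylated PL peptides bind GST-PDZ fusions, and retained peptide is quantified by 450 nm absorbance.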
# [2] = target: T2, PDZ protein (GST-PDZ fusion) (Homo sapiens, UniProt O14745)
# T2 construct: made in house; host or cells: E. coli (DH5alpha, BL21 or JM109)
# T2 sequence (O14745 1-358): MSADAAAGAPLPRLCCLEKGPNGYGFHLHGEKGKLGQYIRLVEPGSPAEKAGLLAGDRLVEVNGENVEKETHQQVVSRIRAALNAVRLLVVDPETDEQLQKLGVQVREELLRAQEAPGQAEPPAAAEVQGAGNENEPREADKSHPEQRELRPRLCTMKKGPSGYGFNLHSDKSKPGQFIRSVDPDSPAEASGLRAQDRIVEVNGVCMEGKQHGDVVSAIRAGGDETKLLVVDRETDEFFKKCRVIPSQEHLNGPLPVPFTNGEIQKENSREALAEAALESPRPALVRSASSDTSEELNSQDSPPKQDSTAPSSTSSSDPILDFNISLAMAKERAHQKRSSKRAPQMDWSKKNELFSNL
# In short: as §1
# [3] = target: T3, PDZ protein (GST-PDZ fusion) (Homo sapiens, UniProt Q9BYB0); conditions: PDZ SHANK3, PDZ Domain 1
# T3 construct: made in house; host or cells: E. coli (DH5alpha, BL21 or JM109)
# In short: as §1
# T3 sequence (Q9BYB0 whole entry, the tested form may be a part): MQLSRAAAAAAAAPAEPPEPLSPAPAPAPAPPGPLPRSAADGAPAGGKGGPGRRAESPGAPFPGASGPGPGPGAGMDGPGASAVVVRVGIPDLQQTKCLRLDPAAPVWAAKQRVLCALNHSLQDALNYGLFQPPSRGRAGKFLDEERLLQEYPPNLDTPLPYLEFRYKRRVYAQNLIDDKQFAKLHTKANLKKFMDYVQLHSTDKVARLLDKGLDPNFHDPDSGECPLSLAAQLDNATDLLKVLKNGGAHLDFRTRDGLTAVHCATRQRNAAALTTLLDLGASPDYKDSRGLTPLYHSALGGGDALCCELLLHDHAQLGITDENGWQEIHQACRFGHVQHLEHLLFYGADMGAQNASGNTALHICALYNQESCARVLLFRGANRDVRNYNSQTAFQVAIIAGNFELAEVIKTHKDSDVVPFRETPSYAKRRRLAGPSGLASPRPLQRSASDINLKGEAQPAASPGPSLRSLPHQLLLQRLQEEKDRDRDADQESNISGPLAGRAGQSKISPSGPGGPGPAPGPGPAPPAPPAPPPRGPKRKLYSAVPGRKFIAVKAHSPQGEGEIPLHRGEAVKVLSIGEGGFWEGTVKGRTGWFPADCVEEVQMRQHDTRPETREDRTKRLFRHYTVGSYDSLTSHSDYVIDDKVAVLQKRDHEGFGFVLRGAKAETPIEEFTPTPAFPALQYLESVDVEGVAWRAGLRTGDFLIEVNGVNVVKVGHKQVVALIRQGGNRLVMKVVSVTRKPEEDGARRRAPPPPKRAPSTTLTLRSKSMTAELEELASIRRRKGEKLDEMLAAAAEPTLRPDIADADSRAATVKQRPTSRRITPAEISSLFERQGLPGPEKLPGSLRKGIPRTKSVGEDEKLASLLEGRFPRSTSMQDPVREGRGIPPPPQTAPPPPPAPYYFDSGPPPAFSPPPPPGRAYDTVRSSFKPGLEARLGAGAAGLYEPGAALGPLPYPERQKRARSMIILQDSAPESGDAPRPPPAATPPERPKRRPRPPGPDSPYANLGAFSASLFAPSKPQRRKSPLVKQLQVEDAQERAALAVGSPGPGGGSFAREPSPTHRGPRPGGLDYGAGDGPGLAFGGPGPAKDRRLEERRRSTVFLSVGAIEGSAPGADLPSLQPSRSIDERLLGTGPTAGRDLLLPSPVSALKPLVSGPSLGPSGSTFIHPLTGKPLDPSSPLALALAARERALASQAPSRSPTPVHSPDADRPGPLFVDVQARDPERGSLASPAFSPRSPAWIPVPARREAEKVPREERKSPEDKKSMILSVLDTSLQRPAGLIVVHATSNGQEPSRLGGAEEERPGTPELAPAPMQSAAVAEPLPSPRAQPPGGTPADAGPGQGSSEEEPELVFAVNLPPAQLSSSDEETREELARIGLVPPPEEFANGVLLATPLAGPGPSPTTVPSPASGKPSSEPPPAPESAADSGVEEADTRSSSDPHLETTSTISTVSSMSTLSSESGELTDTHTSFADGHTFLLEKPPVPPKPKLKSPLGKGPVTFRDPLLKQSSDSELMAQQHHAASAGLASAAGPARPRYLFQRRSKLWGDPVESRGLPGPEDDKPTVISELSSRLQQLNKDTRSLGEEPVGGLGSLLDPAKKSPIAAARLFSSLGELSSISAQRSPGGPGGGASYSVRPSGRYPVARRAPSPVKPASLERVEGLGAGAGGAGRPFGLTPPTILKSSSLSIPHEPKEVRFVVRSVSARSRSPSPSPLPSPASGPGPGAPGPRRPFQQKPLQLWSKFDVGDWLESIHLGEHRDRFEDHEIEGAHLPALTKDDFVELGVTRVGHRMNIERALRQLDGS
Molecule,Classification [1],"Classification ([2]; PDZ EBP50, PDZ Domain 1)","Classification ([2]; PDZ EBP50, PDZ Domain 2)",Classification [3]
CC[C@H](C)[C@H](NC(=O)[C@H](CC(=O)O)NC(=O)[C@H](CCC(=O)O)NC(=O)[C@H](CCCNC(=N)N)NC(=O)[C@@H](NC(=O)CCCC[C@@H]1SC[C@@H]2NC(=O)N[C@@H]21)[C@@H](C)O)C(=O)N[C@@H](Cc1ccc(O)cc1)C(=O)N[C@H](C(=O)N[C@@H](CC(N)=O)C(=O)N[C@@H](Cc1ccc(O)cc1)C(=O)N1CCC[C@H]1C(=O)N[C@H](C(=O)N[C@@H](Cc1ccccc1)C(=O)N[C@@H](CO)C(=O)N[C@@H](CCCNC(=N)N)C(=O)N[C@@H](CCCNC(=N)N)C(=O)N1CCC[C@H]1C(=O)N[C@@H](CCCCN)C(=O)N[C@H](C(=O)N[C@@H](CCCNC(=N)N)C(=O)N[C@H](C(=O)O)C(C)C)[C@@H](C)O)[C@@H](C)O)C(C)C [DNAM-1] (Biotin-TREDIYVNYPTFSRRPKTRV-OH; C-terminus assumed),3 (A450 nm 2-3),1 (A450 nm 0-1),1 (A450 nm 0-1),2 (A450 nm 1-2)
CC(C)C[C@H](NC(=O)[C@H](C)NC(=O)[C@@H](NC(=O)[C@H](CCC(=O)O)NC(=O)[C@H](CCCNC(=N)N)NC(=O)[C@H](CCCNC(=N)N)NC(=O)CNC(=O)[C@H](CCC(N)=O)NC(=O)[C@H](CC(C)C)NC(=O)[C@H](CCCNC(=N)N)NC(=O)CNC(=O)CNC(=O)[C@H](CCCNC(=N)N)NC(=O)[C@H](C)NC(=O)[C@H](CO)NC(=O)[C@H](CCCNC(=N)N)NC(=O)CNC(=O)CNC(=O)[C@H](C)NC(=O)[C@H](C)NC(=O)CCCC[C@@H]1SC[C@@H]2NC(=O)N[C@@H]21)[C@@H](C)O)C(=O)O [HPV E6 33 (modified)] (Biotin-AAGGRSARGGRLQGRRETAL-OH; C-terminus assumed),1 (A450 nm 0-1),2 (A450 nm 1-2),2 (A450 nm 1-2),2 (A450 nm 1-2)
PPATPSPRLALPAHHNATRL (Biotin-PPATPSPRLALPAHHNATRL) [Na+/Pi cotransporter 2],1 (A450 nm 0-1),5 (A450 nm of 4 more than 2× repeated),2 (A450 nm 1-2),5 (A450 nm of 4 more than 2× repeated)

# From patent US20050282743A1, “Molecular interactions in cells” (Arbor Vita Corporation, priority 2001, published 2005)
